In patent US20220016048A1, “CANNABIDIOL-TYPE CANNABINOID COMPOUND” (GW Research Limited, priority 2018, published 2022):

What was measured:
[1] = test system: PCP-induced social behaviour deficit in female rats; details: background statement; cited from earlier work
[2] = test system: sub-chronic PCP-induced deficit in social behaviour in female Lister-Hooded rats; assay: social interaction test in sub-chronic PCP treated rats; format: in vivo, rat
Method: The aim of the current study was to investigate the ability of CBD-C4 (3, 10 & 30 mg/kg IP; 60 min pre-treatment (ptt)) in comparison with risperidone (an atypical antipsychotic; 0.1 mg/kg IP; 60 min pre-treatment), to antagonise a sub-chronic PCP (scPCP; 2 mg/kg IP; twice daily for 7-days; 7 day wash out)-induced deficit in social behaviour in female Lister-Hooded rats.
180 female Lister Hooded rats were used for this experiment, of which 90 were used for the drug study and 90 weight-matched untreated conspecifics were used as the companion rat, and their behaviour was not scored.
Rats were housed in groups of 5 under standard laboratory conditions under a 12-hr light: dark cycle, lights on at 0700 hr. Testing was carried out in the light phase. These studies were carried out in accordance with the Animals Scientific Procedures Act (UK, 1986).
CBD-C4 was used at doses of (3, 10, 30 mg/kg, i.p.) and risperidone was used at a dose of 0.1 mg/kg, i.p.
Rats were randomly assigned to two treatment groups and treated with vehicle, n=15 (distilled water, i.p.) or PCP, n=75 (2 mg/kg, i.p. twice daily for 7-days). This was followed by a 7-day wash out period before the rats were tested following acute treatment with CBD-C4, risperidone or vehicle.
Risperidone (0.1 mg/kg) was dissolved in a minimum volume of acetic acid, made up to volume with distilled water and pH adjusted to 6 with 0.1M NaOH and administered via the i.p. route in a volume of 1 ml/kg, 60 min prior to testing.
CBD-C4 (3, 10 & 30 mg/kg) was dissolved in 2:1:17 (Ethanol:Cremophor EL:Saline 0.9%). CBD-C4 was administered via the i.p. route in a volume of 5 ml/kg, 60 min prior to testing.
The social interaction test was performed in an open-field comprising a square box made of Plexiglas (52×52×31 cm) placed 27 cm above the floor on a moveable trolley. The floor of the box was white with black gridlines forming 9 identical squares on it. All other walls were black. A video camera connected to a video recorder and monitor was positioned above the box. The object used for the test consists of a heavy structure made of metal that cannot be displaced by the animals.
After a 7 day drug-free period, the rats were habituated to the test environment and arena prior to the test day. Habituation consisted of placing all rats from one cage together in the empty test arena for one hour for three days including the day before the test day.
Pairs of rats, weight matched (15-20 g) and unfamiliar to each other, receiving either no treatment (n=90 “conspecific” rats) or different treatments (PCP; n=15 “tested” rats, Vehicle; n=15 “tested” rats, or PCP+drug; n=60 “tested” rats) were placed in the test arena together for 10 minutes and behavior assessed as described below.
An inanimate object such as an unopened drink can was also placed in the centre of the arena to measure any differences in interaction of the test animal with an unfamiliar animal as opposed to an unfamiliar object. After each 10-minute trial, the object and arena were cleaned with 10% alcohol in an attempt to remove traces of any olfactory cues. All testing was carried out under standard room illumination levels (70 cd/m^2).
Behaviour in both trials was recorded on video for subsequent blind scoring. A behavioural scoring software program (Hindsight, Scientific programming services) was used to score the following parameters:
Investigative sniffing behaviour: sniffing the conspecific's snout or parts of the body including the anogenital region.
Following: rat moves after the conspecific i.e. a vehicle treated rat of the same species, around the arena.
Avoidances: actively turning away when approached by the conspecific animal.
Investigation of object: exploration of object placed in centre of the arena.
Locomotor activity is recorded by counting the total number of sectors (i.e. lines) crossed by the test rat.
All data were assessed for normality using D'Agostino and Pearson normality test. […]

[3] = test system: mouse model of seizure; assay: maximal electroshock (MES) test in the mouse; format: in vivo; details: 2 mg/kg i.p. 30 minutes before MES; p<0.001
Method: Mice were administered MES (50 mA, rectangular current: 0.6 ms pulse width, 0.4 s duration, 50 Hz) via corneal electrodes connected to a constant current shock generator (Ugo Basile: type 7801). The number of tonic convulsions was recorded.
Twelve mice were studied per group. The test was performed blind.
The test substance, CBD-C4, was evaluated at 5 doses (3, 10, 30, 100 and 200 mg/kg), administered i.p. 60 minutes before MES, and compared with a vehicle control group (administered under the same experimental conditions).
Diazepam (2 mg/kg i.p.), administered i.p. 30 minutes before MES, was used as a reference substance and was compared with a vehicle group (administered i.p. 60 minutes before MES).
Data was analysed by comparing treated groups with the appropriate vehicle control using Fisher's Exact Probability tests.

[4] = 0.1 mg/kg i.p., 60 min pre-treatment
[5] = CBD-C4 3, 10, 30 mg/kg, risperidone 0.1 mg/kg i.p., data not shown

O=C1Cc2cc(CCN3CCN(c4nsc5ccccc45)CC3)c(Cl)cc2N1 [ziprasidone]
attenuation of PCP-induced social behaviour deficit [1]: attenuated

Cc1nc2n(c(=O)c1CCN1CCC(c3noc4cc(F)ccc34)CC1)CCCC2 [risperidone]
avoidance behaviour compared to the scPCP-treated group [2, 4]: significantly decreased | following behaviour [2, 4]: no significant effect | sniffing behaviour [2, 4]: no significant effect | line crossings (locomotor activity) [2, 5]: no significant effect | object exploration [2, 5]: no significant effect

c1ccc(C2(N3CCCCC3)CCCCC2)cc1 [PCP, Phencyclidine]
sniffing behaviour (scPCP vs vehicle) ([2]; PCP 2 mg/kg i.p. twice daily 7 days, 7-day wash out, P<0.001): significantly reduced | following behaviour (scPCP vs vehicle) ([2]; PCP 2 mg/kg i.p. twice daily 7 days, 7-day wash out, P<0.01): significantly reduced | increase in the duration of avoidance activity (scPCP vs vehicle) ([2]; PCP 2 mg/kg i.p. twice daily 7 days, 7-day wash out, P=0.058): just failed to reach statistical significance

CN1C(=O)CN=C(c2ccccc2)c2cc(Cl)ccc21 [diazepam, Diazepam, reference compound]
decrease in the number of tonic convulsions, as compared with vehicle controls [3]: −75%

O=C1CCc2ccc(OCCCCN3CCN(c4cccc(Cl)c4Cl)CC3)cc2N1 [aripiprazole]
attenuation of PCP-induced social behaviour deficit [1]: attenuated

CNCCC(Oc1ccc(C(F)(F)F)cc1)c1ccccc1 (stereo not shown) [fluoxetine]
attenuation of PCP-induced social behaviour deficit [1]: not attenuated

O=C(CCCN1CCC(O)(c2ccc(Cl)cc2)CC1)c1ccc(F)cc1 [haloperidol]
attenuation of PCP-induced social behaviour deficit [1]: not attenuated
